Publication PMC3907537, “Evaluation of the Endothelin Receptor Antagonists Ambrisentan, Bosentan, Macitentan, and Sitaxsentan as Hepatobiliary Transporter Inhibitors and Substrates in Sandwich-Cultured Human Hepatocytes” (PLoS ONE, 2014)
pIC50: −log10 of the molar value. “And” between values parts separate entries of the source, which are not always exact repeats. Identical values can stand only once.

These compounds were tested against T1, NTCP (Homo sapiens, UniProt Q14973) (assay: NTCP inhibition, 3H taurocholate uptake in transfected CHO cells). Conditions: mean ± SD of 3 independent studies in duplicate, tested 0.14–100 µM.
T1 construct: host or cells: CHO
T1 sequence (Q14973 1-349): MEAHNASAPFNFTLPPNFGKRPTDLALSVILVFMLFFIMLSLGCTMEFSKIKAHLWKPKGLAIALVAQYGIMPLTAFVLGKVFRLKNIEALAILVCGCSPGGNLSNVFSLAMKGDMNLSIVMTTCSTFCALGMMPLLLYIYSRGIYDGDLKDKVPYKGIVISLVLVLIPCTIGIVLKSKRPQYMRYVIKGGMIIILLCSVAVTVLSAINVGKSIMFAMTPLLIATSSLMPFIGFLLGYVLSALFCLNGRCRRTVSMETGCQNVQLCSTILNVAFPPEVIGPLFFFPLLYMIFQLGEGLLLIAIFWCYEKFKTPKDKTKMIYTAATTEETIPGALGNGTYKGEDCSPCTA
Type: cell-based
Source text: Chinese Hamster Ovary (CHO) cells were obtained from Professor B. Stieger’s laboratory at University of Zurich, Zurich, Switzerland. Madin-Darby Canine Kidney strain II (MDCKII) cells were obtained from Nederlands Kanker Instituut (NKI), Amsterdam, Netherlands. NTCP-CHO cells, BSEP and MRP2 membrane vesicles were developed and validated at Solvo Biotechnology, Budaors, Hungary.
CHO cells, either wild type or transfected with the genes encoding human NTCP, OATP1B1 and OATP1B3, were maintained in Dulbecco’s Modification of Eagle’s Medium (DMEM) containing 1,000 mg/L D-glucose, L-glutamine, 25 mM HEPES buffer, 110 mg/L sodium pyruvate, 1% Penicillin/Streptomycin, 10% fetal bovine serum (FBS), 0.05 mg/mL L proline and 0.5 mg/mL of geneticin G-418. Cells were maintained in incubators set at 37°C, 90% humidity and 5% CO2. OATP1B1 and OATP1B3 over-expressing cells were seeded in BioCoat Poly-D-Lysine coated 96-well black cell culture plates with clear bottoms at a density of 1×10^5 cells/well. Sodium butyrate (10 mM) was added to the OATP1B1 and OATP1B3 cells once seeded to increase the protein expression level and the cells were grown to confluence overnight. The assay buffer contained 142 mM NaCl, 5 mM KCl, 1 mM KH2PO4, 1.2 mM MgSO4, 1.5 mM CaCl2, 5 mM Glucose and 12.5 mM HEPES (pH 7.4). After removal of the media and before adding test compounds, the cells were washed twice with 37°C assay buffer followed by a 0.5 h pre-incubation with assay buffer. […] Wells were analyzed for Fluo 3 fluorescence at an excitation of 485 nm and emission of 530 nm. Inhibition of NTCP was studied using similar conditions to those described for OATP1B1 and OATP1B3 except that inhibition of the uptake ^3H taurocholate into transfected CHO cells was monitored using radioactive scintillation counting.
All assays were performed in duplicate. […] IC50 values were calculated using non-linear fitting of % inhibition versus concentration to a sigmoidal curve with a variable Hill Coefficient using GraphPad Prism 5 (GraphPad Software Inc., San Diego, CA).

| pIC50 | Structure (SMILES) |
| --- | --- |
| 4.44 and 4.45 | COc1ccccc1Oc1c(NS(=O)(=O)c2ccc(C(C)(C)C)cc2)nc(-c2ncccn2)nc1OCCO [bosentan] |
| 5.00 and 5.01 | CCCNS(=O)(=O)Nc1ncnc(OCCOc2ncc(Br)cn2)c1-c1ccc(Br)cc1 [macitentan] |
| < 4.00 | COC(c1ccccc1)(c1ccccc1)[C@H](Oc1nc(C)cc(C)n1)C(=O)O [ambrisentan] |
